Measurements reported in patent US20050131045A1, “Novel crystal forms of ondansetron, processes for their preparation, pharmaceutical, compositions containing the novel forms and methods for treating nausea using them” (priority 2002, published 2005).

Experiment: Solubility in C1-C3 alcohols
Type: physicochemical
Conditions: methanol, ethanol, propan-1-ol, propan-2-ol; room temperature
Method: Ondansetron Form B may be prepared by crystallizing ondansetron from a solution in a C1-C3 alcohol, in particular, methanol, ethanol, propan-1-ol, propan-2-ol and mixtures thereof. Ondansetron is dissolved in the C1-C3 alcohol, preferably in an amount sufficient to produce from about a 50 mM to about a 300 mM solution, more preferably from about an 85 mM to about a 150 mM solution. […] Consequently, it may be necessary to heat the mixture in order to fully dissolve it. Preferably, the mixture is refluxed until the mixture becomes a clear solution. The solution is preferably free of solid ondansetron that could potentially seed the mixture causing precipitation of ondansetron in a crystalline form other than Form B or co-crystallization of Form B with another form. Preferably, the Form B obtained by crystallization from the alcohol solution contains less than or equal to about 5% other crystalline forms of ondansetron, more preferably Form B contains less than or equal to about 1% other crystalline forms of ondansetron.

Cc1nccn1CC1CCc2c(c3ccccc3n2C)C1=O (racemic) [Ondansetron, (±) 1,2,3,9-Tetrahydro-9-methyl-3-[2-methyl-1H-imidazol-1-yl)methyl]-4H-carbazol-4-one]
solubility in C1-C3 alcohols: limited solubility
